Source: article PMC2883571, “Quercetin Targets Cysteine String Protein (CSPα) and Impairs Synaptic Transmission” (PLoS ONE, 2010)

What was measured:
[1] = target: T1, purified recombinant rat CSPα (Rattus norvegicus, UniProt P60905); test: SDS-resistant dimerization of purified protein, SDS-PAGE; assay type: binding; conditions: 24 h incubation; concentration series
T1 construct: gene Dnajc5; purified recombinant soluble CSPα
T1 sequence (P60905 1-198): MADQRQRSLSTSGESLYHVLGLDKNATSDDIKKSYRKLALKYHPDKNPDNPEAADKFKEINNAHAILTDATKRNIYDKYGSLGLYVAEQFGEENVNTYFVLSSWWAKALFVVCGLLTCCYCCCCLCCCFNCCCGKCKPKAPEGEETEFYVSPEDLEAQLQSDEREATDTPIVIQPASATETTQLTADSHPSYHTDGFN

c-myc-CSPα = target: T2, c-myc-CSPα (Rattus norvegicus, UniProt P60905); test: CSPα dimer in transfected CAD cells, anti-myc Western blot; assay type: cell-based; conditions: 24 h treatment of intact cells, cysteine string region
T2 construct: gene Dnajc5; full-length CSPα1-198, c-myc tag kept; transient expression in CAD mouse neuroblastoma cells; palmitoylated monomer ~34 kDa, dimer ~72 kDa
T2 sequence (P60905 1-198): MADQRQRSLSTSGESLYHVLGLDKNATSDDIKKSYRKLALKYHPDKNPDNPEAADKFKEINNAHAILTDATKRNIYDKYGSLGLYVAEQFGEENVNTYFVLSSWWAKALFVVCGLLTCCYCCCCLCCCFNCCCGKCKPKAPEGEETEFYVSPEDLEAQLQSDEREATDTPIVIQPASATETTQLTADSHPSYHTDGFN

[2] = target: the molecule itself; test: SDS-resistant dimer on SDS-PAGE with Western blot; lysates of transiently transfected CAD cells, control or treated 24 h with quercetin (up to 200 µM), EGCG or other agents; 30-40 µg protein in SDS sample buffer at 37°C or 80°C; dimer at ∼72 kDa

With `O=c1c(O)c(-c2ccc(O)c(O)c2)oc2cc(O)cc(O)c12` [quercetin, 3,3′,4′,5,7-pentapentahydroxyflavone] the CSPα dimer formation [1] was “quercetin triggered dimerization of recombinant CSPα in a concentration dependent manner” and the “fold CSPα dimer vs control at 100 μM” value (c-myc-CSPα) was 4 fold.

B1: c-myc tagged rat CSPα_(1–198) (cysteine string protein) (natural protein, UniProt P60905 1-198, looked up)
chain: MADQRQRSLSTSGESLYHVLGLDKNATSDDIKKSYRKLALKYHPDKNPDNPEAADKFKEINNAHAILTDATKRNIYDKYGSLGLYVAEQFGEENVNTYFVLSSWWAKALFVVCGLLTCCYCCCCLCCCFNCCCGKCKPKAPEGEETEFYVSPEDLEAQLQSDEREATDTPIVIQPASATETTQLTADSHPSYHTDGFN
modifications: both unmodified and palmitoylated (extensive fatty acylation) species seen
notes: cysteine string protein alpha (CSPα), rat, residues 1-198; also called c-myc-CSPα; source: CAD mouse neuroblastoma cells, transiently transfected, in lysate
In the case of B1, the “fold dimer with 100 µM quercetin at 24 hrs over control” value [2] is reported as 4 fold.
